From patent US9210914B2, “Method for training honeybees to respond to olfactory stimuli and enhancement of memory retention therein” (LOS ALAMOS NATIONAL SECURITY, LLC, priority 2011, dated 2015)

How the values were obtained:
Format in all cases: in vivo, Apis mellifera
honeybees [1] = assay: Death rate of honeybees after supplement administration; conditions: Four μl PKA (15.6 units PKA/bee)
Description: (§1) The bees were brought back to the lab and split into three groups. One control group was fed 40% sugar water in a trough or on parafilm in cage. […] The second and third experimental groups were given 40% sugar water spiked with the cocktail. All honeybees were handled the same way. The mixture was to the honeybees from the beginning of capture, through training and until the completion of the experiment.
Long-term memory enhancements using PKA and caffeine were also tested. Caffeine and PKA, when administered separately, increase long-term memory out to a minimum of 3 days post training. Approximately 3.9 units PKA/bee (1 μl) and 15.6 units PKA/bee (4 μl) were administrated.

honeybees [2] = assay: Long-term memory retention of conditioned PER response in honeybees fed supplements
Description: as §1
Long-term memory enhancements using PKA and caffeine were also tested. […] Approximately 3.9 units PKA/bee (1 μl) and 15.6 units PKA/bee (4 μl) were administrated.

honeybees [3] = assay: Trainability of honeybees in PER olfactory conditioning; conditions: JHIII alone, 250 mg/ml in acetone, topical administration to thorax, 3 ul; foragers (TNT) or young (linalool)
[4] = 1 μl PKA (approximately 3.9 units PKA/bee)

For protein kinase A [PKA], which “death rate at Day 3 post training and exposure” value (honeybees [1]) is on record?
Its value is “larger death rate”.

What about the “long-term memory at the 24 hour mark” value (honeybees [2]; [4]) of the same compound?
Its value is “increase in long-term memory”.

And the “long-term memory at the 48 hour mark” value (honeybees [2]; [4])?
The value was “increase in long-term memory”.

Which “long term memory recall” value (honeybees [2]; caffeine at 2.5 mM, compared to concentrations ranging 0-5 mM) does the source give for `Cn1c(=O)c2c(ncn2C)n(C)c1=O` [Caffeine, caffeine] here?
The value was “best improvement in long term memory recall”.

How did the “long-term memory in honeybees trained to C-4” value (honeybees [2]; 1mM cAMP ingested in 40% sucrose solution, alone) turn out when `Nc1ncnc2c1ncn2[C@@H]1O[C@@H]2COP(=O)(O)O[C@H]2[C@H]1O` [cAMP, cyclic adenosine monophosphate] was run?
Its value is “did not appear to significantly increase long-term memory”.

Which trainability (honeybees [3]) does the source give for `COC(=O)/C=C(\C)CC/C=C(\C)CC[C@H]1OC1(C)C` [JHIII, Juvenile Hormone III] here?
The trainability was “does not appear to substantially increase trainability”.
